Results on 13 compounds are retold here after patent US20250171426A1, “PYRIMIDINEDIONE-BASED COMPOUNDS AS AXL, C-MET, AND MER INHIBITORS AND METHODS OF USE THEREOF” (CMG Pharmaceutical Co., Ltd., priority 2022, published 2025).

Where only a bound is given, the exact number is not on record here.

Holding throughout (assay type): biochemical
Common to all, as to conditions: 10 μM ATP, 60 min, ADP-GLO luminescence

One assay addresses c-MET (Homo sapiens, UniProt P08581). As to the kind of experiment: Enzymatic assay (ADP-Glo kinase reaction), c-MET. A digest of the protocol:
(§1)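 For both AXL and c-MET, reactions in tyrosine kinase buffer used 0.2 μg/μL poly(Glu4,Tyr1) and 10 μM ATP with serially diluted inhibitor, 60 min at room temperature. ADP formed was read by ADP-Glo luminescence after 40 min reagent incubation.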

For the next assay, the target named is T1, AXL (Homo sapiens, UniProt P30530).
T1 sequence (P30530 26-894): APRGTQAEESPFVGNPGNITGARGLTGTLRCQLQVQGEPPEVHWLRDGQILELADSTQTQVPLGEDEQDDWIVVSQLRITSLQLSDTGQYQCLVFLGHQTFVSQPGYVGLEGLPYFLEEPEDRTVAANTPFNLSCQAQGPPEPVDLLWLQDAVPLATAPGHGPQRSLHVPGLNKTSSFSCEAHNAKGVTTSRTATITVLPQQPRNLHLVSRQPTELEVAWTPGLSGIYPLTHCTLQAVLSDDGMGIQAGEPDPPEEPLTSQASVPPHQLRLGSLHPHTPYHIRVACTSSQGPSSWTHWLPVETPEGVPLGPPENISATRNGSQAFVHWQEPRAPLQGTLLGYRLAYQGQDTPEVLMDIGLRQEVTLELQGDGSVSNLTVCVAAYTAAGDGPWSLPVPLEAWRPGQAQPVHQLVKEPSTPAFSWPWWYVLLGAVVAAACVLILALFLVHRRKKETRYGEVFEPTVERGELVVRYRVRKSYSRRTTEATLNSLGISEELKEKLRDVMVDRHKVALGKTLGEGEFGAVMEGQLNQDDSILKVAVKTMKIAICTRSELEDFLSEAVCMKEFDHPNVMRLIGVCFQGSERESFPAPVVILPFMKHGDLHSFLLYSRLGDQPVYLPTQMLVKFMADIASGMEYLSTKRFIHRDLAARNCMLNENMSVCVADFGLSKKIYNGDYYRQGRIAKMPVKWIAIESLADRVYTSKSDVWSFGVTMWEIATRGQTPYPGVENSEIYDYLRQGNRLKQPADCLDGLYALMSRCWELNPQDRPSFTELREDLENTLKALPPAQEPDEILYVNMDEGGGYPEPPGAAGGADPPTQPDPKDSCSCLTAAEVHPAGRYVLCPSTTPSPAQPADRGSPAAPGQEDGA
Kind of assay: Enzymatic assay (ADP-Glo kinase reaction), AXL. In a few lines:
as §1
For orientation: ADP-Glo first removes unused ATP, then detects ADP through luciferase.

In the next assay the target is T2, MER (Homo sapiens, UniProt Q12866).
T2 sequence (Q12866 21-999): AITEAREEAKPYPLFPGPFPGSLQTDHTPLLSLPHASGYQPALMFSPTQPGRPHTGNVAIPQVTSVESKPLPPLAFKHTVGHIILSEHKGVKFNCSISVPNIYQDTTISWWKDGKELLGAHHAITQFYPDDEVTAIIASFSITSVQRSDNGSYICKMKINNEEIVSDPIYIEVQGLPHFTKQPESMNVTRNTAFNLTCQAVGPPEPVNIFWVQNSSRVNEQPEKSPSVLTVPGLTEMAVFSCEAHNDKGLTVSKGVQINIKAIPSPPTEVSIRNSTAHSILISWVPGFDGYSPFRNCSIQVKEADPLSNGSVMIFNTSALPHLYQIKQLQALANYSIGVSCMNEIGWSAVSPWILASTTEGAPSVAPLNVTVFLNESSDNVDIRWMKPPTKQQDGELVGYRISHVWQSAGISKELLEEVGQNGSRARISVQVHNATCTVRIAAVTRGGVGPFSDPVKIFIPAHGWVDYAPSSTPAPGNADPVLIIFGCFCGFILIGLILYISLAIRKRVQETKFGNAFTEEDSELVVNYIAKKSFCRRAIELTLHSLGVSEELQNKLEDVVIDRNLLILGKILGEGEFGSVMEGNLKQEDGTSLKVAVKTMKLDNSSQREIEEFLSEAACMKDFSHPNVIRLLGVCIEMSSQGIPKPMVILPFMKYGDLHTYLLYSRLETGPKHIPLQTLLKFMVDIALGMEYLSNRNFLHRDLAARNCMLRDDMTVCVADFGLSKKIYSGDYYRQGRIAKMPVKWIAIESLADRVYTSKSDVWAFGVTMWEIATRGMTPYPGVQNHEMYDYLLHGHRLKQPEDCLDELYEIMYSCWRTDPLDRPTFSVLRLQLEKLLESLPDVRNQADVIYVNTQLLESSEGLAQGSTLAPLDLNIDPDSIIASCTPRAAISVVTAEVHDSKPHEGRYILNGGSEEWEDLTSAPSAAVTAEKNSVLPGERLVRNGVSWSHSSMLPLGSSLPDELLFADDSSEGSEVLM
As to the kind of experiment: Enzymatic assay (ADP-Glo kinase reaction), MER. A digest of the protocol:
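ADP-Glo luminescence assay of MER in tyrosine kinase buffer with 0.2 μg/μL poly(Glu4,Tyr1) substrate and 10 μM ATP. Serially diluted inhibitor reacted 60 min at room temperature. IC50 taken from luminescence after ADP-Glo and detection steps.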

Chain of c-MET (P08581 25-1390): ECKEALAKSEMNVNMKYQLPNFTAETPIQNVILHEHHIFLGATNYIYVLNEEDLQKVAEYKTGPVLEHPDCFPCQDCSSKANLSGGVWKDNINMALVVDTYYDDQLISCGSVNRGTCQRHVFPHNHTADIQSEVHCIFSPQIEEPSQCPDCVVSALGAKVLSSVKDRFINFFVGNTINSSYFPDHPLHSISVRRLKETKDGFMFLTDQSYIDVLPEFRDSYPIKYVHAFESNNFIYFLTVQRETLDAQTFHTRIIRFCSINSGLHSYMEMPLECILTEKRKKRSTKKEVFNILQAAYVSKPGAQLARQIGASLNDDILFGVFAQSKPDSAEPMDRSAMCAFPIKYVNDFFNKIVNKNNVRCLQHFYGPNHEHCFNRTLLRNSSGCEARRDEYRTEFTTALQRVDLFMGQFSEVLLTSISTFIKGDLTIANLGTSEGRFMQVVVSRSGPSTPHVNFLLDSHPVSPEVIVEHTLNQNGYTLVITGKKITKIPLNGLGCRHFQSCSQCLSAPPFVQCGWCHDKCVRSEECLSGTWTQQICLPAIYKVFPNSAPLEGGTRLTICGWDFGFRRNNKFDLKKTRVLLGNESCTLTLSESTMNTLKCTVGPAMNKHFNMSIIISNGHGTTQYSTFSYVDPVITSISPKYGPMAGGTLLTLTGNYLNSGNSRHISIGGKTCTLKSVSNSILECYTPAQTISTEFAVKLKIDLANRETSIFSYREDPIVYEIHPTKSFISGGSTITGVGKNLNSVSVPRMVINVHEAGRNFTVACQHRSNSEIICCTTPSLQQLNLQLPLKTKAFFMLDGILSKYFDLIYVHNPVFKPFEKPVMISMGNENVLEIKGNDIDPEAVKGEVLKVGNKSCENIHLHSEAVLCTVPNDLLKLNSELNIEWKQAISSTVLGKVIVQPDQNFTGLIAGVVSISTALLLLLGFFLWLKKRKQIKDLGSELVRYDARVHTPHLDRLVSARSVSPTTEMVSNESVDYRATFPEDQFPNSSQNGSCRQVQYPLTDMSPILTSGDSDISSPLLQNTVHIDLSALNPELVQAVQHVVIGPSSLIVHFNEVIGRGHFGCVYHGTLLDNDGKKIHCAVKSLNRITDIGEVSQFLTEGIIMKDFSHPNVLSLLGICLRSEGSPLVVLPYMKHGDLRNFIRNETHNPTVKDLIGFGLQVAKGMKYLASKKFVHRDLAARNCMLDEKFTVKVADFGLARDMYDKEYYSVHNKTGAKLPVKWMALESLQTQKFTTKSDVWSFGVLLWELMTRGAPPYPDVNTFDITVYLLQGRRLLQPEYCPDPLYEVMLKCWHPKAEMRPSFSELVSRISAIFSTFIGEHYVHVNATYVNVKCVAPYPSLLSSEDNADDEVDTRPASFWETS

In general, IC50 refers to the concentration that inhibits the measured activity by half. Low values mean greater potency in that assay, high ones weaker potency in that assay. Take `Cc1nc(Cn2cc(C(=O)Nc3ccc(Oc4ccnc(N)c4C#CCN4CCOCC4)c(F)c3)c(=O)n(-c3ccc(F)cc3)c2=O)cs1` [Example 40, N-(4-((2-amino-3-(3-morpholinoprop-1-yn-1-yl)pyridin-4-yl)oxy)-3-fluorophenyl)-3-(4-fluorophenyl)-1-((2-methylthiazol-4-yl)methyl)-2,4-dioxo-1,2,3,4-tetrahydropyrimidine-5-carboxamide]: the IC50 is < 1000 nM on c-MET, < 100 nM against AXL and < 100 nM on MER.
On to `Cc1nc(Cn2cc(C(=O)Nc3ccc(Oc4ccnc(N)c4C#CC(C)(C)N4CCNCC4)c(F)c3)c(=O)n(-c3ccc(F)cc3)c2=O)cs1` [Example 41, N-(4-((2-amino-3-(3-methyl-3-(piperazin-1-yl)but-1-yn-1-yl)pyridin-4-yl)oxy)-3-fluorophenyl)-3-(4-fluorophenyl)-1-((2-methylthiazol-4-yl)methyl)-2,4-dioxo-1,2,3,4-tetrahydropyrimidine-5-carboxamide], for which the IC50 on c-MET, on AXL and against MER was < 100 nM each time.
Turning to `Cc1nc(Cn2cc(C(=O)Nc3ccc(Oc4ccnc(N)c4C#CC(C)(C)N4CCN(C)CC4)c(F)c3)c(=O)n(-c3ccc(F)cc3)c2=O)cs1` [Example 42, N-(4-((2-amino-3-(3-methyl-3-(4-methylpiperazin-1-yl)but-1-yn-1-yl)pyridin-4-yl)oxy)-3-fluorophenyl)-3-(4-fluorophenyl)-1-((2-methylthiazol-4-yl)methyl)-2,4-dioxo-1,2,3,4-tetrahydropyrimidine-5-carboxamide], the IC50 against c-MET is < 100 nM; at AXL it was < 1000 nM; on MER, < 100 nM.
Take `Cc1nc(Cn2cc(C(=O)Nc3ccc(Oc4ccnc(N)c4C#CCC4CCN(C)CC4)c(F)c3)c(=O)n(-c3ccc(F)cc3)c2=O)cs1` [Example 43, N-(4-((2-amino-3-(3-(1-methylpiperidin-4-yl)prop-1-yn-1-yl)pyridin-4-yl)oxy)-3-fluorophenyl)-3-(4-fluorophenyl)-1-((2-methylthiazol-4-yl)methyl)-2,4-dioxo-1,2,3,4-tetrahydropyrimidine-5-carboxamide]: the IC50 against c-MET, on AXL and on MER was < 10 nM each time.
Consider `Cc1nc(Cn2cc(C(=O)Nc3ccc(Oc4ccnc(N)c4C#CCC4CCNCC4)c(F)c3)c(=O)n(-c3ccc(F)cc3)c2=O)cs1` [Example 44, N-(4-((2-amino-3-(3-(piperidin-4-yl)prop-1-yn-1-yl)pyridin-4-yl)oxy)-3-fluorophenyl)-3-(4-fluorophenyl)-1-((2-methylthiazol-4-yl)methyl)-2,4-dioxo-1,2,3,4-tetrahydropyrimidine-5-carboxamide], for which the IC50 against c-MET, on AXL and against MER was < 10 nM throughout.
Turning to `CN1CCC(CC#Cc2c(Oc3ccc(NC(=O)c4nn(C)c(=O)n(-c5ccc(F)cc5)c4=O)cc3F)ccnc2N)CC1` [Example 45, N-(4-((2-amino-3-(3-(1-methylpiperidin-4-yl)prop-1-yn-1-yl)pyridin-4-yl)oxy)-3-fluorophenyl)-4-(4-fluorophenyl)-2-methyl-3,5-dioxo-2,3,4,5-tetrahydro-1,2,4-triazine-6-carboxamide], the IC50 was < 1000 nM against c-MET, < 100 nM against AXL and < 100 nM on MER.
With `Cn1nc(C(=O)Nc2ccc(Oc3ccnc(N)c3C#CCC3CCNCC3)c(F)c2)c(=O)n(-c2ccc(F)cc2)c1=O` [Example 46, N-(4-((2-amino-3-(3-(piperidin-4-yl)prop-1-yn-1-yl)pyridin-4-yl)oxy)-3-fluorophenyl)-4-(4-fluorophenyl)-2-methyl-3,5-dioxo-2,3,4,5-tetrahydro-1,2,4-triazine-6-carboxamide], the IC50 was < 100 nM against c-MET, < 10 nM at AXL and < 100 nM on MER.
Regarding `Cn1nc(C(=O)Nc2ccc(Oc3ccnc(N)c3C#CC(C)(C)N3CCNCC3)c(F)c2)c(=O)n(-c2ccc(F)cc2)c1=O` [Example 47, N-(4-(2-amino-3-(3-methyl-3-(piperazin-1-yl)but-1-ynyl)pyridin-4-yloxy)-3-fluorophenyl)-4-(4-fluorophenyl)-2-methyl-3,5-dioxo-2,3,4,5-tetrahydro-1,2,4-triazine-6-carboxamide], the IC50 against c-MET was < 1000 nM; against AXL it was < 10 nM; against MER it was < 100 nM.
On to `Cn1nc(C(=O)Nc2ccc(Oc3ccnc(N)c3C#CC(C)(C)N3CCOCC3)c(F)c2)c(=O)n(-c2ccc(F)cc2)c1=O` [Example 48, N-(4-(2-amino-3-(3-methyl-3-morpholinobut-1-ynyl)pyridin-4-yloxy)-3-fluorophenyl)-4-(4-fluorophenyl)-2-methyl-3,5-dioxo-2,3,4,5-tetrahydro-1,2,4-triazine-6-carboxamide], for which the IC50 on c-MET is < 100 nM; at AXL, < 100 nM; against MER, < 1000 nM.
In the case of `Cn1nc(C(=O)Nc2ccc(Oc3ccnc(N)c3C#CCN3CCOCC3)c(F)c2)c(=O)n(-c2ccc(F)cc2)c1=O` [Example 49, N-(4-(2-amino-3-(3-morpholinoprop-1-ynyl)pyridin-4-yloxy)-3-fluorophenyl)-4-(4-fluorophenyl)-2-methyl-3,5-dioxo-2,3,4,5-tetrahydro-1,2,4-triazine-6-carboxamide], the IC50 against c-MET is < 1000 nM; against AXL it was < 100 nM; against MER, < 100 nM.
`CC(C)(C#Cc1c(Oc2ccc(NC(=O)c3c[nH]c(=O)n(-c4ccc(F)cc4)c3=O)cc2F)ccnc1N)N1CCOCC1` [Example 50, N-(4-(2-amino-3-(3-methyl-3-morpholinobut-1-ynyl)pyridin-4-yloxy)-3-fluorophenyl)-3-(4-fluorophenyl)-2,4-dioxo-1,2,3,4-tetrahydropyrimidine-5-carboxamide]: the IC50 at c-MET is < 100 nM; at AXL it was < 10 nM; at MER it was < 100 nM.
Take `Nc1nccc(Oc2ccc(NC(=O)c3c[nH]c(=O)n(-c4ccc(F)cc4)c3=O)cc2F)c1C#CCN1CCOCC1` [Example 51, N-(4-(2-amino-3-(3-morpholinoprop-1-ynyl)pyridin-4-yloxy)-3-fluorophenyl)-3-(4-fluorophenyl)-2,4-dioxo-1,2,3,4-tetrahydropyrimidine-5-carboxamide]: the IC50 at c-MET, on AXL and against MER was < 100 nM throughout.
For `CC(C)(C#Cc1c(Oc2ccc(NC(=O)c3c[nH]c(=O)n(-c4ccc(F)cc4)c3=O)cc2F)ccnc1N)N1CCNCC1` [Example 52, N-(4-(2-amino-3-(3-methyl-3-(piperazin-1-yl)but-1-ynyl)pyridin-4-yloxy)-3-fluorophenyl)-3-(4-fluorophenyl)-2,4-dioxo-1,2,3,4-tetrahydropyrimidine-5-carboxamide], the IC50 was < 1000 nM at c-MET, < 100 nM against AXL and < 100 nM against MER.
